These results are taken from US8754079B2, “Cycloalkyl containing thienopyrimidines for pharmaceutical compositions” (Boehringer Ingelheim International GmbH, priority 2010, dated 2014).

SMILES strings stand for the structures. pIC50: −log10 of the molar value.

What is called pIC50 is the negative decadic logarithm of the IC50, by convention in mol/L. Read a low pIC50 as a high IC50.

The assay deals with T1, MNK2 (Homo sapiens, UniProt Q9HBH9).
T1 construct: the open reading frames of human Mnk1 and Mnk2a were amplified from cDNA; made in house; host or cells: E. coli BL21
T1 sequence (Q9HBH9 whole entry): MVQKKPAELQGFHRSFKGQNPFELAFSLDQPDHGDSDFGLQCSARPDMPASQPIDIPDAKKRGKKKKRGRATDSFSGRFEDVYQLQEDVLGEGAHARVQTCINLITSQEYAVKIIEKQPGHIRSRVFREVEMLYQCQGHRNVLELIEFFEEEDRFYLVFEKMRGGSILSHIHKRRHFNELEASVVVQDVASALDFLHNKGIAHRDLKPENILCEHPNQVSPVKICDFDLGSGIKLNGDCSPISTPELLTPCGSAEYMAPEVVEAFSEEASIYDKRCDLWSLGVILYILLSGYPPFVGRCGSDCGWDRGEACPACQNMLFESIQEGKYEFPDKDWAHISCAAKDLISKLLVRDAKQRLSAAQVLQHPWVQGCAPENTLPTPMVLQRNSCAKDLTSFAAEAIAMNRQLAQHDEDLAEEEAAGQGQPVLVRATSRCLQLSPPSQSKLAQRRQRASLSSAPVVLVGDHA
The assay is described as follows: Mnk2a in vitro kinase assay (indirect fluorescence polarization). As to conditions: pre-activated GST-Mnk2a 2.5 nM, 20 μM ATP, 30 μM substrate peptide. It is filed as biochemical. As to the method: Inhibitory potency of compounds against Mnk1, Mnk2a and other kinases was assessed with assays based on a format known to those skilled in the art as the indirect (competitive) fluorescence polarization. The assay detection system comprises a small fluorophore-labeled phospho-peptide (termed ligand) bound to a phospho-specific antibody. The product generated by the kinase reaction competes with the ligand for antibody binding. Based on the larger molecular volume of the bound ligand, which results in a lower rotation rate in solution, its emitted light has a higher degree of polarization than the one from the free ligand.
Example 2a. Mnk1 and Mnk2a in vitro kinase assay
As a source of enzyme, human Mnk1 and human Mnk2a were expressed as GST fusion proteins in E. coli, purified to >80% homogeneity by glutathione affinity chromatography and activated in vitro with pre-activated ERK2. In brief, the open reading frames of human Mnk1 and Mnk2a were amplified from cDNA using the forward/reverse primer pairs
(utilized restriction sites underlined), respectively, and cloned into the BamHI and SalI sites of the vector pGEX-4T1 (Amersham, Sweden, cat. no. 27-4580-01). These constructs allow prokaryotic expression of Mnk1 or Mnk2a as fusion protein with a N-terminal glutathione S-transferase (GST) tag, referred to as GST-Mnk1 or GSTMnk2a. The following expression and purification procedure was identical for GSTMnk1 and GST-Mnk2a, referring in general to GST-Mnk, when not distinguishing between the two isoforms. Expression of GST-Mnk was in E. coli BL21 (Merck Biosciences, Germany, cat. no. 69449). Cells were grown in LB-Bouillon (Merck, Germany, cat. no. 1.10285) supplemented with 100 μg/ml ampicillin (Sigma, Germany, cat. no. A9518) at 37° C. When the culture had reached a density corresponding to an A600 of 0.8, an equal volume of ice cold LB/ampicillin was added, the culture transferred to 25° C. and induced for 4 h with 1 mM isopropyl thiogalactoside (IPTG, Roth, Germany, cat. no. 2316.4). Cells harvested by centrifugation were resuspended in 10 ml lysis buffer (50 mM tris(hydroxymethyl)aminomethane hydrochloride (Tris/HCl, Sigma, Germany, cat. no. T5941) pH 7.5, 300 mM sodium chloride (NaCl, Sigma, Germany, cat. no. S7653), 5% (w/v) glycerol (Sigma, Germany, cat. no. G5516), 3 mM DTT dithiotreitol (DTT, Sigma, Germany, cat. no. D9779)) per gram wet weight cell pellet. Lysates were prepared by disruption of cells with a sonifier and subsequent clearing by centrifugation at 38000 g for 45 min at 4° C.
The lysate was applied to a GSTPrep FF 16/10 column (Amersham, Sweden, cat. no. 17-5234-01) equilibrated with lysis buffer. Removal of unbound material was with 3 column volumes (CV) lysis buffer. Elution was with 2 CV of elution buffer (50 mM Tris/HCl pH 7.5, 300 mM NaCl, 5% (w/v) glycerol, 20 mM glutathione (Sigma, Germany, cat. no. G4251)). Peak fractions were pooled and the protein transferred into storage buffer (50 mM Tris/HCl pH 7.5, 200 mM NaCl, 0.1 mM ethylene glycolbis(2-aminoethylether)-N,N,N′,N′-tetraacetic acid (EGTA, Aldrich, Germany, cat. no. 23, 453-2), 1 mM DTT, 10% (w/v) glycerol, 0.5 M sucrose (Sigma, Germany, cat. no. S0389) by gel filtration on a PD10 desalting column (Amersham, Sweden, cat. no. 17-0851-01). Aliquots were shock frozen in liquid nitrogen and stored at −80° C.
Activation of Mnk1 and Mnk2a was at a concentration of 2.5 μM of either purified GST-Mnk1 or GST-Mnk2a by incubation with 150 nM pre-activated NHis-ERK2 (see ERK2 assay for preparation) and 50 μM adenosine triphosphate (ATP, Sigma, cat. no. A2699) in a buffer comprising 20 mM N-(2-hydroxyethyl)piperazine-N′-(2-ethanesulfonic acid) (HEPES, Fluka, Germany, cat. no 54459)/potassium hydroxide (KOH, Roth, Germany, cat. no 6751.1) pH 7.4, 10 mM magnesium chloride (MgCl2, Sigma, Germany, cat. no. M2670), 0.25 mM DTT, 0.05% (w/v) polyoxyethylene 20 stearylether (Brij 78, Sigma, Germany, cat. no. P4019) (HMDB buffer) for 45 min at 30° C. […]
Background: Polarisation of emitted light reports the rotation of a fluorescent probe.
`CO[C@@H]1CCC[C@@H](Oc2cc(F)ccc2Nc2ncnc3sc(C(=O)NCc4cnco4)c(C)c23)C1` (racemic) [Example 82] showed a pIC50 of 7.36. To `CO[C@@H]1CCC[C@@H](Oc2cc(F)ccc2Nc2ncnc3sc(C(=O)NCCCN(C)C)c(C)c23)C1` (racemic) [Example 88] belongs 7.21; to `CO[C@H]1CCC[C@@H](Oc2cc(F)ccc2Nc2ncnc3sc(C(N)=O)c(C)c23)C1` (racemic) [Example 89, Racemic 4-[4-Fluoro-2-((cis)-3-methoxy-cyclohexyloxy)-phenylamino]-5-methyl-thieno[2,3-d]pyrimidine-6-carboxylic acid amide], 8.10; to `CO[C@H]1CCC[C@@H](Oc2cc(F)ccc2Nc2ncnc3sc(C(=O)NCC#CCN)c(C)c23)C1` (racemic) [Example 91], 7.80. The same measure for `CO[C@H]1CCC[C@@H](Oc2cc(F)ccc2Nc2ncnc3sc(C(=O)NCCCCO)c(C)c23)C1` (racemic) [Example 92]: 7.44; for `CO[C@H]1CCC[C@@H](Oc2cc(F)ccc2Nc2ncnc3sc(C(=O)NCc4cnco4)c(C)c23)C1` (racemic) [Example 93]: 7.80. Regarding `CNC(=O)CNC(=O)c1sc2ncnc(Nc3ccc(F)cc3O[C@@H]3CCC[C@H](OC)C3)c2c1C` (racemic) [Example 95], the pIC50 is 7.55. Regarding `CO[C@H]1CCC[C@@H](Oc2cc(F)ccc2Nc2ncnc3sc(C(=O)NCCCN4CCOCC4)c(C)c23)C1` (racemic) [Example 97], the pIC50 is 7.62. To `CO[C@H]1CCC[C@@H](Oc2cc(F)ccc2Nc2ncnc3sc(C(=O)N[C@H]4CC[C@H](O)CC4)c(C)c23)C1` (racemic) [Example 100] belongs 7.47. For `CO[C@H]1CCC[C@@H](Oc2cc(F)ccc2Nc2ncnc3sc(C(=O)NCCO)c(C)c23)C1` (racemic) [Example 101], the pIC50 was 7.68.

`CO[C@H]1CCC[C@@H](Oc2cc(F)ccc2Nc2ncnc3sc(C(=O)NCCN4CCCCC4)c(C)c23)C1` (racemic) [Example 103] had a negative-log IC50 (pIC50) of 7.30.

Molecule `CO[C@H]1CCC[C@@H](Oc2cc(F)ccc2Nc2ncnc3sc(C(=O)NCCCO)c(C)c23)C1` (racemic) [Example 105] showed a pIC50 of 7.62. The same measure for `CO[C@H]1CCC[C@@H](Oc2cc(F)ccc2Nc2ncnc3sc(C(=O)NCCCN4CCCC4)c(C)c23)C1` (racemic) [Example 106]: 7.66; for `CCNC(=O)c1sc2ncnc(Nc3ccc(F)cc3O[C@@H]3CCC[C@H](OC)C3)c2c1C` (racemic) [Example 109]: 7.62. To `COC(=O)c1sc2ncnc(Nc3cccnc3O[C@@H]3CCC[C@H](OC)C3)c2c1C` (racemic) [Example 110.1, Racemic 4-[2-((cis)-3-Methoxy-cyclohexyloxy)-pyridin-3-ylamino]-5-methyl-thieno[2,3-d]pyrimidine-6-carboxylic acid methylester] belongs 8.05; to `CO[C@H]1CCC[C@@H](Oc2ncccc2Nc2ncnc3sc(C(=O)NCC#CCN)c(C)c23)C1` (racemic) [Example 112], 7.89.

`CO[C@H]1CCC[C@@H](Oc2ncccc2Nc2ncnc3sc(C(=O)NCCCCO)c(C)c23)C1` (racemic) [Example 113] gave a pIC50 of 7.64. To `CO[C@H]1CCC[C@@H](Oc2ncccc2Nc2ncnc3sc(C(=O)NCc4cnco4)c(C)c23)C1` (racemic) [Example 114] belongs 7.72; to `CNC(=O)CNC(=O)c1sc2ncnc(Nc3cccnc3O[C@@H]3CCC[C@H](OC)C3)c2c1C` (racemic) [Example 116], 7.48; to `CO[C@H]1CCC[C@@H](Oc2ncccc2Nc2ncnc3sc(C(=O)NCCCN4CCOCC4)c(C)c23)C1` (racemic) [Example 118], 7.66. To `CO[C@H]1CCC[C@@H](Oc2ncccc2Nc2ncnc3sc(C(=O)N[C@H]4CC[C@H](O)CC4)c(C)c23)C1` (racemic) [Example 121] belongs 7.39. The same measure for `CO[C@H]1CCC[C@@H](Oc2ncccc2Nc2ncnc3sc(C(=O)NCCO)c(C)c23)C1` (racemic) [Example 122]: 7.74; for `CO[C@H]1CCC[C@@H](Oc2ncccc2Nc2ncnc3sc(C(=O)NCCN4CCCCC4)c(C)c23)C1` (racemic) [Example 124]: 7.44.

`CO[C@H]1CCC[C@@H](Oc2ncccc2Nc2ncnc3sc(C(=O)NCCCN4CCCC4)c(C)c23)C1` (racemic) [Example 127] showed a negative logarithm of the IC50 (pIC50) of 7.80.

The molecule `CO[C@H]1CCC[C@@H](Oc2ncccc2Nc2ncnc3sc(C(=O)NCc4cn(C)cn4)c(C)c23)C1` (racemic) [Example 128] had a negative logarithm of the IC50 (pIC50) of 7.72.

Regarding `CCNC(=O)c1sc2ncnc(Nc3cccnc3O[C@@H]3CCC[C@H](OC)C3)c2c1C` (racemic) [Example 130], the pIC50 was 7.62. In turn, `CO[C@@H]1CCC[C@@H](Oc2ncccc2Nc2ncnc3sc(C(N)=O)c(C)c23)C1` (racemic) [Example 131, Racemic 4-[2-((trans)-3-Methoxy-cyclohexyloxy)-pyridin-3-ylamino]-5-methyl-thieno[2,3-d]pyrimidine-6-carboxylic acid amide] showed a negative-log IC50 (pIC50) of 7.74. With `CO[C@@H]1CCC[C@@H](Oc2ncccc2Nc2ncnc3sc(C(=O)NCC#CCN)c(C)c23)C1` (racemic) [Example 133], the pIC50 is 7.28.

In the case of `CO[C@@H]1CCC[C@@H](Oc2ncccc2Nc2ncnc3sc(C(=O)NCCCCO)c(C)c23)C1` (racemic) [Example 134], the negative logarithm of the IC50 (pIC50) is 7.07. The same measure for `CO[C@@H]1CCC[C@@H](Oc2ncccc2Nc2ncnc3sc(C(=O)NCc4cnco4)c(C)c23)C1` (racemic) [Example 135]: 7.19. The same measure for `CO[C@@H]1CCC[C@@H](Oc2ncccc2Nc2ncnc3sc(C(=O)NCC#N)c(C)c23)C1` (racemic) [Example 136]: 7.36; for `CNC(=O)CNC(=O)c1sc2ncnc(Nc3cccnc3O[C@@H]3CCC[C@@H](OC)C3)c2c1C` (racemic) [Example 137]: 6.98.

The molecule `CO[C@@H]1CCC[C@@H](Oc2ncccc2Nc2ncnc3sc(C(=O)NCC#CCN(C)C)c(C)c23)C1` (racemic) [Example 138] had a pIC50 of 7.32. The same measure for `CO[C@@H]1CCC[C@@H](Oc2ncccc2Nc2ncnc3sc(C(=O)NCCCN4CCOCC4)c(C)c23)C1` (racemic) [Example 139]: 7.08; for `CO[C@@H]1CCC[C@@H](Oc2ncccc2Nc2ncnc3sc(C(=O)N[C@H]4CC[C@H](O)CC4)c(C)c23)C1` (racemic) [Example 142]: 6.90; for `CO[C@@H]1CCC[C@@H](Oc2ncccc2Nc2ncnc3sc(C(=O)NC4CCN(C)CC4)c(C)c23)C1` (racemic) [Example 144]: 7.05. `CO[C@@H]1CCC[C@@H](Oc2ncccc2Nc2ncnc3sc(C(=O)NCCN4CCCCC4)c(C)c23)C1` (racemic) [Example 145] had a negative-log IC50 (pIC50) of 7.17. To `CO[C@@H]1CCC[C@@H](Oc2ncccc2Nc2ncnc3sc(C(=O)NCCCO)c(C)c23)C1` (racemic) [Example 147] belongs 7.08.
